From JP2011219500A, “ムスカリンレセプターアンタゴニストとしての有用なビフェニル化合物” (Theravance Inc, priority 2011, dated 2011)
Read-outs that look alike come from different tables or passages of the source.

Experiments:
[1] = biological target: T1, M3 muscarinic receptor subtype (M3ムスカリン性レセプターサブタイプ) (Homo sapiens, UniProt P20309); assay: Assay 1: radioligand binding assay ([3H]-NMS displacement)
T1 construct: expressed in transfected cells; membrane preparation

hM3 receptor (hM3レセプター) = biological target: T2, hM3 receptor (hM3レセプター) (Homo sapiens, UniProt P20309); assay: Assay 2C: blockade of agonist-mediated calcium release via FLIPR assay; format: cell-based
T2 construct: expressed in transfected cells

[2] = test system: ACh-induced bronchoconstriction (ACh誘導性気管支収縮); assay: Assay 3: duration of bronchoprotection in guinea pig model of acetylcholine-induced bronchoconstriction; format: in vivo; conditions: inhalation, 1.5 h post-dose

T1 sequence (P20309 whole entry): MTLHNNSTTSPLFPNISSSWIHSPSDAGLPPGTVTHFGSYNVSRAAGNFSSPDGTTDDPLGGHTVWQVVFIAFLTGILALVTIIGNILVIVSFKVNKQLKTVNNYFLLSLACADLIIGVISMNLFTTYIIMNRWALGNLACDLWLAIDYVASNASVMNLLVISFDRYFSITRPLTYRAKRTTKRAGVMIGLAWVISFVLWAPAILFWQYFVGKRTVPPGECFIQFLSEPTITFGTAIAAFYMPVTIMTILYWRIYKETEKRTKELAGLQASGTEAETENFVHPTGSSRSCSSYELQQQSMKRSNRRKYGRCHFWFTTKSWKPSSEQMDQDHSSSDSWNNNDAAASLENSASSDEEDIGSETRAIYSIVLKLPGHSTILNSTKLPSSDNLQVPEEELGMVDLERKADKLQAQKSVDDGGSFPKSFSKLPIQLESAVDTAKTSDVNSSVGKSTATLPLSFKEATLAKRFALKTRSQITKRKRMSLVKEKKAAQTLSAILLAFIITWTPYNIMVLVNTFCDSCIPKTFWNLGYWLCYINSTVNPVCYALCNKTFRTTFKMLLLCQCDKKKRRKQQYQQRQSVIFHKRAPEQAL
T2 sequence (P20309 whole entry): as above

SMILES: CN(CCN1CCC(OC(=O)Nc2ccccc2-c2ccccc2)CC1)C(=O)c1ccc(CN2CCC(C(N)=O)CC2)cc1 [実施例1, ビフェニル−2−イルカルバミン酸 1−(2−{[4−(4−カルバモイルピペリジン−1−イルメチル)ベンゾイル]メチルアミノ}エチル)ピペリジン−4−イルエステル]
- Ki [1]: < 5 nM
- Ki (hM3 receptor (hM3レセプター)): < 5 nM
- PD2(50) [2]: < 200 µg/mL

SMILES: CCN(CCN1CCC(OC(=O)Nc2ccccc2-c2ccccc2)CC1)C(=O)c1ccc(CN2CCC(C(N)=O)CC2)cc1 [実施例2, ビフェニル−2−イルカルバミン酸 1−(2−{[4−(4−カルバモイルピペリジン−1−イルメチル)−ベンゾイル]エチルアミノ}エチル)ピペリジン−4−イルエステル]
- Ki ([1]; M3 subtype, [3H]-NMS displacement, CHO cell membranes, printed as less than about, read-out: Ki): < 5 nM
